Experimental data published in PubChem BioAssay AID210 (DTP/NCI, 2004).
Values joined by “and” are separate entries in the source; they are usually repeats but may differ in a detail not shown here. Equal entries are not always repeated. Toxic doses and inconclusive results are not listed. *1 amine or outer side, *2 acyl side, *3 side chain or, on linkers, in order; H or OH if unused. Where a SMILES comes first, the peptide text is derived from it. Bridges are numbered along the chain shown (N, C = ends). Roman numbers before positions name the chains, in order. [ ]: non-standard residue; d: D form. Actinocin(1to9) = Cc1c2oc3c(C)ccc(C(=O)[*:2])c3nc-2c(C(=O)[*:1])c(N)c1=O; NMeV = CN[CH](C(=O)O)C(C)C; Aze = O=C(O)[CH]1CCN1; Sar = CNCC(=O)O

Test system: CD2F1 mice, ip Colon 26 adenocarcinoma, median survival T/C
Assay: NCI In Vivo Anticancer Drug Screen. Data for tumor model Colon 26 Adenocarcinoma (intraperitoneal) in CD2F1 (CDF1) mice
Conditions: endpoint: median survival time, higher = longer survival
Experimental: The antitumor activity of compounds was measured in mice bearing transplantable tumors. Survival or tumor size were measured and the results are expressed as the measurement made in the treated group (T) divided by the measurement made in the vehicle treated control group (C). The tumor model used in this assay is Colon 26 Adenocarcinoma (intraperitoneal) in CD2F1 (CDF1) mice

[1] = dose: 25.0 mg/kg/injection, schedule: Q04DX003 (ip), vehicle: Klucel (hydroxypropylcellulose) (HPC)
[2] = dose: 50.0 mg/kg/injection, schedule: Q04DX003 (ip), vehicle: Klucel (hydroxypropylcellulose) (HPC)

O=C1C=CN(C2OC(CO)C(O)C2O)C(=O)C1 (stereo unspecified)
T/C (dose: 25.0 mg/kg/injection, schedule: Q01DX005 (ip), vehicle: saline): 109 % of control | T/C (dose: 25.0 mg/kg/injection, schedule: Q04DX003 (ip), vehicle: saline): 112 % of control | T/C (dose: 50.0 mg/kg/injection, schedule: Q01DX005 (ip), vehicle: saline): 102 % of control | T/C (dose: 50.0 mg/kg/injection, schedule: Q04DX003 (ip), vehicle: saline): 109 % of control | T/C (dose: 100.0 mg/kg/injection, schedule: Q01DX005 (ip), vehicle: saline): 98 % of control | T/C (dose: 100.0 mg/kg/injection, schedule: Q04DX003 (ip), vehicle: saline): 106 % of control | T/C (dose: 200.0 mg/kg/injection, schedule: Q01DX005 (ip), vehicle: saline): 106 % of control | T/C (dose: 200.0 mg/kg/injection, schedule: Q04DX003 (ip), vehicle: saline): 102 % of control | T/C (dose: 400.0 mg/kg/injection, schedule: Q01DX005 (ip), vehicle: saline): 102 % of control | T/C (dose: 400.0 mg/kg/injection, schedule: Q04DX003 (ip), vehicle: saline): 109 % of control

C[C@@]1(CO)[C@H](O)CC[C@@]2(C)[C@H]1CC[C@H]1C[C@@H]3C[C@@]12CC[C@@]3(O)COC(=O)CN
T/C (dose: 12.5 mg/kg/injection, schedule: Q01DX009 (ip), vehicle: saline + alcohol): 113 % of control | T/C (dose: 25.0 mg/kg/injection, schedule: Q01DX009 (ip), vehicle: saline + alcohol): 95 % of control | T/C (dose: 25.0 mg/kg/injection, schedule: Q04DX003 (iv), vehicle: saline): 115 % of control | T/C (dose: 50.0 mg/kg/injection, schedule: Q01DX009 (ip), vehicle: saline + alcohol): 106 % of control | T/C (dose: 50.0 mg/kg/injection, schedule: Q04DX003 (iv), vehicle: saline): 118 % of control | T/C (dose: 75.0 mg/kg/injection, schedule: Q01DX009 (ip), vehicle: saline + alcohol): 94 % of control | T/C (dose: 100.0 mg/kg/injection, schedule: Q04DX003 (iv), vehicle: saline): 100 % of control

Cc1c2oc3c(C)ccc(C(=O)NC4C(=O)NC(C(C)C)C(=O)N5CCCC5C(=O)N(C)CC(=O)N(C)C(C(C)C)C(=O)OC4C)c3nc-2c(C(=O)NC2C(=O)NC(C(C)C)C(=O)N3CCC3C(=O)N(C)CC(=O)N(C)C(C(C)C)C(=O)OC2C)c(N)c1=O (stereo unspecified) (I: TV[Aze][Sar][NMeV] / II: TVP[Sar][NMeV]; ester I:1-I:C, II:1-II:C; linker I:N-II:N via Actinocin(1to9); configuration not given here)
T/C (dose: 0.08 mg/kg/injection, schedule: Q04DX003 (ip), vehicle: saline + alcohol): 100 % of control | T/C (dose: 0.14 mg/kg/injection, schedule: Q04DX003 (ip), vehicle: saline + alcohol): 123 % of control | T/C (dose: 0.23 mg/kg/injection, schedule: Q04DX003 (ip), vehicle: saline + alcohol): 119 % of control | T/C (dose: 0.65 mg/kg/injection, schedule: Q04DX003 (ip), vehicle: saline + alcohol): 151 % of control | T/C (dose: 270.0 micrograms/kg/injection, schedule: Q04DX003 (ip), vehicle: saline + alcohol): 108 % of control | T/C (dose: 375.0 micrograms/kg/injection, schedule: Q01DX001 (ip), vehicle: saline + alcohol): 119 % of control | T/C (dose: 450.0 micrograms/kg/injection, schedule: Q04DX003 (ip), vehicle: saline + alcohol): 151 % of control | T/C (dose: 750.0 micrograms/kg/injection, schedule: Q01DX001 (ip), vehicle: saline + alcohol): 102 % of control | T/C (dose: 750.0 micrograms/kg/injection, schedule: Q04DX003 (ip), vehicle: saline + alcohol): 157 % of control

CC1=CCCC(C)(O)C2CC(CCC3(C)OC3CC1)C(C)C(=O)O2 (stereo unspecified)
T/C (dose: 22.5 mg/kg/injection, schedule: Q04DX002 (ip), vehicle: Klucel (hydroxypropylcellulose) (HPC)): 98 % of control | T/C (dose: 45.0 mg/kg/injection, schedule: Q04DX002 (ip), vehicle: Klucel (hydroxypropylcellulose) (HPC)): 100 % of control | T/C (dose: 90.0 mg/kg/injection, schedule: Q04DX002 (ip), vehicle: Klucel (hydroxypropylcellulose) (HPC)): 100 % of control | T/C (dose: 180.0 mg/kg/injection, schedule: Q04DX002 (ip), vehicle: Klucel (hydroxypropylcellulose) (HPC)): 102 % of control

CC(=O)O[C@@H]1[C@@H](O)C2=C3[C@]4(C)[C@@H]1C(C)(C)C(=O)C[C@@H]4[C@]3(O)[C@H](OC(C)=O)[C@@]1(C[C@@H]1C)C2=O
T/C (dose: 6.25 mg/kg/injection, schedule: Q04DX003 (ip), vehicle: distilled water + Tween-80): 94 % of control | T/C (dose: 6.25 mg/kg/injection, schedule: Q04DX003 (ip), vehicle: saline with Tween-80): 106 % of control | T/C (dose: 12.5 mg/kg/injection, schedule: Q04DX003 (ip), vehicle: distilled water + Tween-80): 106 % of control | T/C (dose: 25.0 mg/kg/injection, schedule: Q04DX003 (ip), vehicle: distilled water + Tween-80): 106 % of control | T/C (dose: 25.0 mg/kg/injection, schedule: Q04DX003 (ip), vehicle: saline with Tween-80): 99 % of control | T/C (dose: 50.0 mg/kg/injection, schedule: Q04DX003 (ip), vehicle: distilled water + Tween-80): 100 % of control | T/C (dose: 50.0 mg/kg/injection, schedule: Q04DX003 (ip), vehicle: saline with Tween-80): 106 % of control | T/C (dose: 100.0 mg/kg/injection, schedule: Q04DX003 (ip), vehicle: saline with Tween-80): 106 % of control

COC(=O)Nc1cccc(-c2nc3ccc(NC(=O)OC)cc3c(=O)n2-c2ccccc2)c1
T/C (dose: 64.0 mg/kg/injection, schedule: Q04DX003 (ip), vehicle: Klucel (hydroxypropylcellulose) (HPC)): 171 % of control

[I][Hg][CH2]C1OCCOC1[CH2][Hg][I] (stereo unspecified)
T/C [1]: 103 % of control | T/C [2]: 100 % of control

CCC1OCC(C(Cl)CCl)O1 (stereo unspecified)
T/C (dose: 12.5 mg/kg/injection, schedule: Q04DX003 (ip), vehicle: Klucel (hydroxypropylcellulose) (HPC)): 116 % of control | T/C [1]: 97 % of control | T/C [2]: 99 % of control | T/C (dose: 100.0 mg/kg/injection, schedule: Q04DX003 (ip), vehicle: Klucel (hydroxypropylcellulose) (HPC)): 104 % of control | T/C (dose: 200.0 mg/kg/injection, schedule: Q04DX003 (ip), vehicle: Klucel (hydroxypropylcellulose) (HPC)): 92 % of control

N[C@H](C(=O)O)[C@@H]1CC(Cl)=NO1
T/C (dose: 1.0 mg/kg/injection, schedule: Q04DX003 (ip), vehicle: saline): 102 % of control | T/C (dose: 2.0 mg/kg/injection, schedule: Q04DX003 (ip), vehicle: saline): 105 % of control | T/C (dose: 4.0 mg/kg/injection, schedule: Q04DX003 (ip), vehicle: saline): 107 % of control | T/C (dose: 8.0 mg/kg/injection, schedule: Q04DX003 (ip), vehicle: saline): 103 % of control | T/C (dose: 16.0 mg/kg/injection, schedule: Q04DX003 (ip), vehicle: saline): 110 % of control | T/C (dose: 32.0 mg/kg/injection, schedule: Q04DX003 (ip), vehicle: saline): 107 % of control

NC(Cc1ccc(N(CCCl)CCCl)cc1)C(=O)O (stereo unspecified)
T/C (dose: 2.0 mg/kg/injection, schedule: Q04DX002 (ip), vehicle: Klucel (hydroxypropylcellulose) (HPC)): 168 % of control | T/C (dose: 4.0 mg/kg/injection, schedule: Q04DX002 (ip), vehicle: Klucel (hydroxypropylcellulose) (HPC)): 253 % of control | T/C (dose: 8.0 mg/kg/injection, schedule: Q04DX002 (ip), vehicle: Klucel (hydroxypropylcellulose) (HPC)): 245 % of control | T/C (dose: 16.0 mg/kg/injection, schedule: Q04DX002 (ip), vehicle: Klucel (hydroxypropylcellulose) (HPC)): 156 % of control

COC12[C@@H]3N[C@@H]3CN1C1=C(C(=O)C(NCCSSCCNC3=C(C)C(=O)C4=C(C3=O)C(COC(N)=O)[C@]3(OC)C5N[C@@H]5CN43)=C(C)C1=O)[C@@H]2COC(N)=O (stereo partly specified)
T/C (dose: 1.0 mg/kg/injection, schedule: Q01DX004 (ip), vehicle: other): 94 % of control | T/C (dose: 2.0 mg/kg/injection, schedule: Q01DX004 (ip), vehicle: other): 99 % of control | T/C (dose: 2.0 mg/kg/injection, schedule: Q03DX002 (ip), vehicle: other): 100 % of control | T/C (dose: 4.0 mg/kg/injection, schedule: Q01DX004 (ip), vehicle: other): 107 % of control | T/C (dose: 4.0 mg/kg/injection, schedule: Q03DX002 (ip), vehicle: other): 117 % of control | T/C (dose: 6.0 mg/kg/injection, schedule: Q01DX004 (ip), vehicle: other): 101 % of control | T/C (dose: 6.0 mg/kg/injection, schedule: Q01DX005 (ip), vehicle: other): 96 % of control | T/C (dose: 9.0 mg/kg/injection, schedule: Q01DX005 (ip), vehicle: other): 96 % of control | T/C (dose: 9.0 mg/kg/injection, schedule: Q03DX002 (ip), vehicle: other): 110 % of control | T/C (dose: 15.0 mg/kg/injection, schedule: Q01DX005 (ip), vehicle: other): 106 % of control

CC1(CO)C(O)CCC2(C)C1CCC1CC3CC12CCC3(O)CO (stereo unspecified)
T/C (dose: 25.0 mg/kg/injection, schedule: Q01DX009 (ip), vehicle: saline with Tween-80): 167 % of control | T/C (dose: 50.0 mg/kg/injection, schedule: Q04DX003 (oral), vehicle: saline with Tween-80): 105 % of control and 106 % of control and 113 % of control | T/C (dose: 100.0 mg/kg/injection, schedule: Q04DX003 (oral), vehicle: saline with Tween-80): 101 % of control and 119 % of control and 100 % of control | T/C (dose: 600.0 mg/kg/injection, schedule: Q04DX003 (ip), vehicle: saline with Tween-80): 100 % of control | T/C (dose: 1600.0 mg/kg/injection, schedule: Q04DX003 (oral), vehicle: saline with Tween-80): 106 % of control
